Read-outs that look alike come from different tables or passages of the source.
How the values were obtained:
Assay type in all cases: cell-based
[1] = molecular target: T1, M2 muscarinic receptor (Homo sapiens, UniProt P08172); test: Functional mobilization of intracellular calcium (FLIPR) in CHO cells expressing M2; details: for EC50: CHO cells expressing M2, FLIPR calcium; for Emax: CHO
T1 construct: expressed in transfected cells; host or cells: CHO (M2-CHO)
T1 sequence (P08172 1-466): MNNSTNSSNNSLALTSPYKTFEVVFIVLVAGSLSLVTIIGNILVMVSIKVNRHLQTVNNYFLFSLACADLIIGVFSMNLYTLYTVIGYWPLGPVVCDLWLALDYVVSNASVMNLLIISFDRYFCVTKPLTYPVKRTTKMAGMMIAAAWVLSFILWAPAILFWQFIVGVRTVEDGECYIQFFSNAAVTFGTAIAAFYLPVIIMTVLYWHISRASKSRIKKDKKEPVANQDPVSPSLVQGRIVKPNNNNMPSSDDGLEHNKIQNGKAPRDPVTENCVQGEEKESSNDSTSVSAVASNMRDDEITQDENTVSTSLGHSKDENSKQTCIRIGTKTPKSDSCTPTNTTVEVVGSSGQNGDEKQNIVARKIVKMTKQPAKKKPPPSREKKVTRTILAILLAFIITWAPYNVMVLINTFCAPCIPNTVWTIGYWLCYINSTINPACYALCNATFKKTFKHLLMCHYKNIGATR
Method: (§1) Functional Mobilization of Intracellular Calcium to Determine Muscarinic Receptor Activity:
(§2) CHO cells expressing muscarinic receptors (M1 to M5) are grown as monolayers in tissue culture flasks at 37° C. in a humidified atmosphere containing 5% CO2 and passaged every 3-5 days. The growth media is Dulbecco's modified eagles medium (DMEM, Gibco Cat# 12430-054), containing 25 mM Hepes and supplemented with Fetal Bovine Serum (Hyclone, cat# SH30071.03), 0.1 mM of MEM non-essential amino acids (GIBCO, Cat# 11140-050), 1 mM MEM Sodium Pyruvate (GIBCO Cat# 11360-070) and 100 units/ml of Penicillin G and 100 μg/ml of Streptomycin (GIBCO Cat# 15140-122). The recombinant muscarinic receptor cell lines are grown under antibiotic pressure with media containing 25 μg/ml zeocin and 500 μg/ml G418 (M1-CHO), 4 μg/ml puromycin, 50 μg/ml zeocin and 2.5 μg/ml blasticidin (M2 and M4-CHO) or 50 μg/ml zeocin and 4 μg/ml puromycin (M3 and M5-CHO).
(§3) Cells are harvested at 80-90% confluence using Versene (GIBCO Cat# 15040-066), collected by centrifugation and seeded 18-24 hrs prior to running the calcium assay at a density of 5,000-10,000 cells/well in […], clear-bottomed 384-well plates (BD Biocoat, poly-D-lysine, Cat#356663). The day of the experiment, the cells are washed with a plate washer (Bioteck Instruments, ELX 405) using bath 1 buffer (140 mM NaCl, 4,5 mM KCl, 2 mM CaCl2, 1 mM MgCl2, 10 mM Hepes-Na, 10 mM Glucose, pH 7.4, with NaOH) containing 1 mM Probenecid. Next, the calcium dye Fluo-3 (25 μl/well of Fluo-3 AM at 4 μM, Molecular Probes F-1241, in Bath 1 buffer containing 1 mM Probenecid) is added to the 25 μl of Bath 1 remaining in each well after the plate wash and the dye is loaded at 37° C. in the tissue culture incubator for 60-90 min. The fluorescent dye is removed using the plate washer with Bath 1 containing 1 mM Probenecid, leaving 25 μl/well of this solution after the wash. Alternatively, cells can be loaded with the calcium indicator from Molecular Devices (Calcium 3 Assay Reagents, Cat #R7181) adding 5 μl of a 5× solution dye in Bath 1 containing 1 mM Probenecid (10 ml per dye flask cat#R7182 to generate a solution […]) to 20 μl of the same buffer. After loading for 60 min, the experiment can be run without having to remove the dye.
(§4) Compounds are prepared at a 2× fold concentration in a 96-well plate (round bottom, Costar Corning cat#3656), by reconstituting the pre-spotted compounds in bath 1 containing 1 mM probenecid. The final concentration DMSO is 0.5%, and the amount of DMSO is normalized across the assay plate. To determine an agonist action of the compounds on muscarinic receptors, the reconstituted compounds are added (25 μl compound/well) to the cell assay plate (containing 25 μl/well) using the multi-channel robotic system of the FLIPR 3 Instrument (Molecular Devices, Sunnyvale, Calif.). To determine a functional inhibitory action of the compounds on muscarinic receptors, the reconstituted compounds are added (25 μl compound/well) to the assay plate and pre-incubated for 15 min prior to adding 25 μl of Carbachol at 3× the EC80 for each muscarinic subtype. Alternatively, the compounds can be co-applied simultaneously with the agonist. In both assay modes, the fluorescence is recorded for 60 sec (excitation wavelength is […] and emission wavelength 540 nm) using the FLIPR 3 instrument.
(§5) The potency, efficacy and selectivity of the muscarinic compounds were evaluated by screening the compound activity across the whole family (M1 to M5 cells). Compounds were also screened for activity on other proteins such as other GPCRs and ion channels to determine selectivity on M4 receptors.

[2] = molecular target: T2, M1 muscarinic receptor (Homo sapiens, UniProt P11229); test: Functional mobilization of intracellular calcium (FLIPR) in CHO cells expressing M1; details: for EC50: CHO cells expressing M1, FLIPR calcium; for Emax: CHO
T2 construct: expressed in transfected cells; host or cells: CHO (M1-CHO)
T2 sequence (P11229 1-460): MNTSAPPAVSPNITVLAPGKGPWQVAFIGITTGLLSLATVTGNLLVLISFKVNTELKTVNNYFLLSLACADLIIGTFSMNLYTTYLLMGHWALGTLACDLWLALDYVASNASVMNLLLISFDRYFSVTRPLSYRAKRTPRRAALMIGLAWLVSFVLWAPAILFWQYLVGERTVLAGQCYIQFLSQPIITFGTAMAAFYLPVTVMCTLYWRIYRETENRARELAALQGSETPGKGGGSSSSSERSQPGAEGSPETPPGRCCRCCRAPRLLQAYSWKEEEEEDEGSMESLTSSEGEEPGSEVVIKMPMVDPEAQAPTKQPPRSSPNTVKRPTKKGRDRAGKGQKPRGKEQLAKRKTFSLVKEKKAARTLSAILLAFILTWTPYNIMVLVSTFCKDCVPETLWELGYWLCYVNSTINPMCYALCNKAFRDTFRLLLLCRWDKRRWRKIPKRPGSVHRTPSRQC
Method: as §1, §2, §3, §4, §5

[3] = molecular target: T3, M4 muscarinic receptor (Homo sapiens, UniProt P08173); test: Functional mobilization of intracellular calcium (FLIPR) in CHO cells expressing M4; details: for EC50: CHO cells expressing M4, FLIPR calcium; for Emax: CHO
T3 construct: expressed in transfected cells; host or cells: CHO (M4-CHO)
T3 sequence (P08173 1-479): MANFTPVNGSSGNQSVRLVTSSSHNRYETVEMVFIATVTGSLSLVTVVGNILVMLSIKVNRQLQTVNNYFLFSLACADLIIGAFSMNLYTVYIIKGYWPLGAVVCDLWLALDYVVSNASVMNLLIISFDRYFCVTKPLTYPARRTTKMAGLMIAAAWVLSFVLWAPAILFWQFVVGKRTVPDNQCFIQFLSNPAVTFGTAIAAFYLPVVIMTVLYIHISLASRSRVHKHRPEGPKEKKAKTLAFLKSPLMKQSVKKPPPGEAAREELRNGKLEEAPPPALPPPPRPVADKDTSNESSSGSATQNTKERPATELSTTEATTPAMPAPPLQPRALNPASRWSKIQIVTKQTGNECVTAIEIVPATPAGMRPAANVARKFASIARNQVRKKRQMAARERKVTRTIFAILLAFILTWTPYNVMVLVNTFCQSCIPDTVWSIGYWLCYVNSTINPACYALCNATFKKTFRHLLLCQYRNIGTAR
Method: as §1, §2, §3, §4, §5

[4] = molecular target: T4, M3 muscarinic receptor (Homo sapiens, UniProt P20309); test: Functional mobilization of intracellular calcium (FLIPR) in CHO cells expressing M3; details: for EC50: CHO cells expressing M3, FLIPR calcium; for Emax: CHO
T4 construct: expressed in transfected cells; host or cells: CHO (M3-CHO)
Method: as §1, §2, §3, §4, §5

[5] = 100% = maximum response obtained with the Carbachol control, read-out: M2 Efficacy
[6] = 100% = maximum response obtained with the Carbachol control, read-out: M1 Efficacy
[7] = 100% = maximum response obtained with the Carbachol control, read-out: M4 Efficacy
[8] = 100% = maximum response obtained with the Carbachol control, read-out: M3 Efficacy
[9] = 100% efficacy = maximum response obtained with the Carbachol control

T4 sequence (P20309 whole entry): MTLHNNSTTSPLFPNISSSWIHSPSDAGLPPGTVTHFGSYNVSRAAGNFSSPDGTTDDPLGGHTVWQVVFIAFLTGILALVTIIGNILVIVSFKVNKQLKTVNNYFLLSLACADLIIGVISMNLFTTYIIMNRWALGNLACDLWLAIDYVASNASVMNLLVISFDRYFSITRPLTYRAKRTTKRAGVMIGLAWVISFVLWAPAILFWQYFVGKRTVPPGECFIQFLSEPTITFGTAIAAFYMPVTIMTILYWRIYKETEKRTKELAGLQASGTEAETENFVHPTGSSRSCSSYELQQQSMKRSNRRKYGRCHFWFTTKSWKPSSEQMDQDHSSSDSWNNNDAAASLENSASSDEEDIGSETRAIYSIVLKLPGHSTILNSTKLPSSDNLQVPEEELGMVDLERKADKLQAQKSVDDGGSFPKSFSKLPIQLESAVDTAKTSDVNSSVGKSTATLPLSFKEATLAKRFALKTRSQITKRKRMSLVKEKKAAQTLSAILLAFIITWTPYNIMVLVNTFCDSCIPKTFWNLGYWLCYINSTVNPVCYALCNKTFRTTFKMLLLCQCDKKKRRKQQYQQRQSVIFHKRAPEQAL

SMILES	EC50 [1] [µM]	Emax [1, 5] [%]	EC50 [2] [µM]	Emax [2, 6] [%]	EC50 [3] [µM]	Emax [3, 7] [%]	EC50 [4] [µM]	Emax [4, 8] [%]	M2 Activity ([1]; CHO cells expressing M2, FLIPR calcium assay)	Emax [1, 9] [%]	M1 Activity ([2]; CHO cells expressing M1, FLIPR calcium assay)	Emax [2, 9] [%]	M4 Activity ([3]; CHO cells expressing M4, FLIPR calcium assay)	Emax [3, 9] [%]	M3 Activity ([4]; CHO cells expressing M3, FLIPR calcium assay)	Emax [4, 9] [%]
Cn1cc(C(=O)N[C@@H]2CCC3(CCN(CCC(C)(C)C)CC3)c3ccccc32)cn1 [compound 129]	> 5	< 25	> 5	< 25	< 2	25 to 100	> 5	< 25								
CC(C)(C)CCN1CCC2(CC[C@H](NC(=O)CC3CCOCC3)c3ccccc32)CC1 [compound 135]	> 5	< 25	< 2	25 to 100	< 2	25 to 100	> 5	< 25								
CCC(=O)N[C@@H]1CCC2(CCN(CCC(C)(C)C)CC2)c2cc(F)ccc21 [compound 11]	> 5	< 25	< 2	25 to 100	< 2	25 to 100	> 5	< 25								
CCCN1CCC2(CC[C@H](NC(C)=O)c3ccccc32)CC1 [compound 95]	> 5	< 25	> 5	25 to 100	> 5	25 to 100	> 5	< 25								
CC(=O)N(C)[C@H]1CCC2(CCN(CCC(C)C)CC2)c2ccccc21 [compound 184]	> 5	< 25	< 2	25 to 100	< 2	25 to 100	> 5	< 25								
CC(=O)N[C@H]1CC2(CCN(CC(=O)O)CC2)c2ccccc21 [compound 256]									+ (activity was measured to be greater than 5.0 μM)	< 25	+ (activity was measured to be greater than 5.0 μM)	< 25	+ (activity was measured to be greater than 5.0 μM)	< 25	+ (activity was measured to be greater than 5.0 μM)	< 25
